According to PubChem BioAssay AID330 (DTP/NCI, 2004):
Inconclusive results and toxic doses are left out. The calls were made as follows: active = survival T/C of 150% or more; inactive = T/C below 125% in these data.

Tested on: P388 leukemia ip, CD2F1 mice, survival T/C
Assay: NCI In Vivo Anticancer Drug Screen. Data for tumor model P388 Leukemia (intraperitoneal) in CD2F1 (CDF1) mice
Settings: endpoint: median survival time, higher = longer survival
In short: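 Mice carrying the transplanted tumor received test compound or vehicle. Survival was recorded in each group, and the value is the treated-group measurement divided by that of the vehicle-treated control group.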

[1] = dose: 50.0 mg/kg/injection, schedule: Q01DX009 (ip), vehicle: saline with Tween-80
[2] = dose: 50.0 mg/kg/injection, schedule: Q01DX009 (ip), vehicle: Klucel (hydroxypropylcellulose) (HPC)
[3] = dose: 100.0 mg/kg/injection, schedule: Q01DX009 (ip), vehicle: Klucel (hydroxypropylcellulose) (HPC)
[4] = dose: 200.0 mg/kg/injection, schedule: Q01DX009 (ip), vehicle: Klucel (hydroxypropylcellulose) (HPC)

Measured: T/C

CSC1=NNC(C)(C)C(N)=N1
inactive: dose: 100.0 mg/kg/injection, schedule: Q01DX001 (ip), vehicle: saline 98 % of control | dose: 200.0 mg/kg/injection, schedule: Q01DX001 (ip), vehicle: saline 97 % of control | dose: 400.0 mg/kg/injection, schedule: Q01DX001 (ip), vehicle: saline 100 % of control

Nc1ccc(NC(=O)c2cc(Cl)cc(Cl)c2O)c(Cl)c1
inactive: [1] 107 % of control | dose: 100.0 mg/kg/injection, schedule: Q01DX009 (ip), vehicle: saline with Tween-80 114 % of control

CCOC(=O)N1CCc2cc(OC)c(OC)cc2C1(O)Cc1cc(OC)c(OC)cc1Br (configuration not stated)
inactive: dose: 25.0 mg/kg/injection, schedule: Q01DX009 (ip), vehicle: other 109 % of control | dose: 50.0 mg/kg/injection, schedule: Q01DX009 (ip), vehicle: other 106 % of control | dose: 100.0 mg/kg/injection, schedule: Q01DX009 (ip), vehicle: other 103 % of control | dose: 200.0 mg/kg/injection, schedule: Q01DX009 (ip), vehicle: other 113 % of control | dose: 400.0 mg/kg/injection, schedule: Q01DX009 (ip), vehicle: other 113 % of control

COc1ccc(/C=C(/C)[N+](=O)[O-])cc1OC
inactive: dose: 22.0 mg/kg/injection, schedule: Q01DX009 (ip), vehicle: saline with Tween-80 109 % of control | dose: 33.0 mg/kg/injection, schedule: Q01DX009 (ip), vehicle: saline with Tween-80 109 % of control | [1] 109 % of control | dose: 75.0 mg/kg/injection, schedule: Q01DX009 (ip), vehicle: saline with Tween-80 118 % of control | dose: 200.0 mg/kg/injection, schedule: Q01DX009 (ip), vehicle: saline 100 % of control

COC(=O)C1(Br)CCC1(Br)C(=O)OC (configuration not stated)
inactive: [2] 100 % of control | [3] 109 % of control | [4] 103 % of control | dose: 400.0 mg/kg/injection, schedule: Q01DX009 (ip), vehicle: Klucel (hydroxypropylcellulose) (HPC) 94 % of control

C/C=C/C[P+](Cc1cccc(C)c1)(c1ccccc1)c1ccccc1
inactive: dose: 0.78 mg/kg/injection, schedule: Q01DX009 (ip), vehicle: saline 101 % of control | dose: 1.56 mg/kg/injection, schedule: Q01DX009 (ip), vehicle: saline 95 % of control | dose: 3.13 mg/kg/injection, schedule: Q01DX009 (ip), vehicle: saline 111 % of control

C1COCCSCCOCCOCCSCCO1
inactive: dose: 100.0 mg/kg/injection, schedule: Q04DX003 (ip), vehicle: Klucel (hydroxypropylcellulose) (HPC) 95 % of control | dose: 200.0 mg/kg/injection, schedule: Q04DX003 (ip), vehicle: Klucel (hydroxypropylcellulose) (HPC) 100 % of control | dose: 400.0 mg/kg/injection, schedule: Q04DX003 (ip), vehicle: Klucel (hydroxypropylcellulose) (HPC) 101 % of control

O=C(c1ccccc1)C1OC1C(=O)c1ccccc1 (configuration not stated)
inactive: [2] 95 % of control | [3] 100 % of control | [4] 102 % of control

S=c1o[nH]c(-c2ccccc2)c1C=Nc1ccccc1
inactive: dose: 60.0 mg/kg/injection, schedule: Q01DX005 (ip), vehicle: saline with Tween-80 102 % of control | dose: 120.0 mg/kg/injection, schedule: Q01DX005 (ip), vehicle: saline with Tween-80 93 % of control | dose: 240.0 mg/kg/injection, schedule: Q01DX005 (ip), vehicle: saline with Tween-80 94 % of control

CC(C)(C)OC(=O)N1CCc2c([nH]oc2=O)C1
inactive: dose: 50.0 mg/kg/injection, schedule: Q01DX009 (ip), vehicle: suspension in saline 92 % of control | dose: 100.0 mg/kg/injection, schedule: Q01DX009 (ip), vehicle: suspension in saline 90 % of control | dose: 200.0 mg/kg/injection, schedule: Q01DX009 (ip), vehicle: suspension in saline 90 % of control

CCCCOC(=O)C(CC)c1ccccc1 (configuration not stated)
inactive: dose: 100.0 mg/kg/injection, schedule: Q04DX003 (ip), vehicle: saline with Tween-80 114 % of control | dose: 200.0 mg/kg/injection, schedule: Q04DX003 (ip), vehicle: saline with Tween-80 114 % of control | dose: 400.0 mg/kg/injection, schedule: Q04DX003 (ip), vehicle: saline with Tween-80 112 % of control
